The record followed here is US10315990B2, “Isothiocyanate compounds and isothiocyanate XPO1 protein inhibitor drugs thereof” (DRIVINGFORCE THERAPEUTICS Co., Ltd., priority 2015, dated 2019).

Read-outs that look alike come from different tables or passages of the source.

The subject of data set [1] is KYSE-70. Briefly: Inhibitory activity for other high metastasis type cancer cell line (MTT or CCK-8). It is filed as cell-based. Conditions: Homo sapiens.
For data set [2], the system named is Panc-1. The data set is described as above. The class given is cell-based. Conditions: Homo sapiens.
Data set [3] concerns IL-6. Put plainly: Serum IL-6 level of IBD animal model (ELISA). It is filed as in vivo, SD rats. Conditions: 80 mg/kg, three days after making the TNBS model. The source says: (§1) Inflammatory bowel disease is an autoimmune disease. […] The therapeutic effect of the representative compound for the immune system disease or inflammation can be assessed by detecting change in levels of some important cytokines such as TNF-α and IL-6 at downstream of the signal path.

Data set [4] addresses T1, XPO1 protein (Homo sapiens, UniProt O14980).
T1 construct: Sixteen hours later, NES-GFP plasmid was transfected with liposome; endogenous in cells
Briefly: Inhibitory activity for XPO1 protein (NES-GFP nuclear export, laser confocal microscope). Conditions: for Activity (μM): inhibitory activity for XPO1 protein (full inhibitory concentration): NES-GFP nuclear export, cells treated for 2 hours. The class given is cell-based.

Data set [5] has as its system CaSki. Put plainly: Inhibitory activity for other high metastasis type cancer cell line (MTT or CCK-8). It is filed as cell-based. Conditions: Homo sapiens, Ca-Ski.
Data set [6] has as its system TNF-α. Briefly: Serum TNF-α level of IBD animal model (ELISA). The class given is in vivo, SD rats. Conditions: 80 mg/kg, three days after making the TNBS model.
Source text: as §1
In general terms: An ELISA detects its analyte on a solid surface through an enzyme-linked reagent.

The subject of data set [7] is HMLE-Snail cell line. Briefly: Formation of HMLE-Snail cell line spheroids. The class given is cell-based. Conditions: read-out: Colony (%): cell colony number of drug-treated group/cell colony number of control group × 100%.
Data set [8] concerns 786-O. Briefly: Inhibitory activity for other high metastasis type cancer cell line (MTT or CCK-8). The class given is cell-based. Conditions: Homo sapiens.
Data set [9] has as its system IBD animal model. Briefly: Macroscopic pathological changes of IBD animal model (enteroclysis with TNBS). Conditions: TNBS rats; for Macroscopic pathological score: 80 mg/kg intragastrically daily, score 0-5, 10 animals. It is filed as in vivo, SD rats. The method, then:
Eight-week-old male SD rats (10 rats per group) were fasted for 24 hours and anaesthetized with diethyl ether. 50% ethanol and TNBS (2,4,6-trinitrobenzenesulfonic acid) were mixed to prepare a solution. In the IBD model group, a tube made of vinyl resin was inserted 5 cm from anus, and enteroclysis was performed with the TNBS solution in a dose of 100 mg/kg. The rats were hung upside down 30 seconds later after the enteroclysis to ensure no leakage of the TNBS solution. In the control group, the TNBS solution was replaced with normal saline with which enteroclysis was performed. Seven days later after the enteroclysis with the TNBS solution or normal saline, animals were sacrificed and dissected. […] Two weeks later after treated with the drugs, the animals were sacrificed and dissected, and large intestine thereof was taken out and fixed in 4% formalin solution for 30 minutes. The large intestine of the animals was cut lengthwise from the mesentery side to take photos for rectum portion and measure the weight of rectum. Based on the macroscopic observation and judgment score (Table 2-1), ulceration and bleeding states of rectum portion were scored according to the macroscopic observation scoring standard.

The subject of data set [10] is Saos-2. Briefly: Inhibitory activity for other high metastasis type cancer cell line (MTT or CCK-8). The class given is cell-based. Conditions: Homo sapiens.
In data set [11] the test system is HO-8910. Briefly: Inhibitory activity for high metastasis type ovarian cancer cell line (MTT or CCK-8). It is filed as cell-based. The method, then: (§2) The two cell lines were inoculated on 96-well cell culture plate in an amount of 6000 cells per well and cultured at 37° C. for 24 hours, and then treated solely with the representative compound added therein and cultured. Seventy-two hours later, MTT or CCK-8 method was used to detect the inhibitory activity of the representative compound for the high metastasis type ovarian cancer cell lines.

In data set [12] the test system is A2780. The data set is described as above. It is filed as cell-based. Conditions: Homo sapiens. On the procedure:
as §2

Data set [13] relates to NCI-H1650. Put plainly: cells. It is filed as cell-based. Conditions: Homo sapiens, NCI-H1650, 72 h. The method, then: (§3) NCI-H1975 and NCI-H1650 are two typical high metastasis type lung cancer cell lines. The therapeutic effect of the representative compound for the metastasis type lung cancers can be preliminarily assessed by detecting the inhibitory activity of the representative compound for the two cell lines. The lung cancer cell line was inoculated on 96-well cell culture plate in an amount of 6000 cells per well and cultured at 37° C. for 24 hours, and then treated solely with the compound added therein and cultured. Seventy-two hours later, MTT or CCK-8 method was used to detect the inhibitory activity of the compound for the two lung cancer cell lines.

Data set [14] relates to NCI-H1975. Briefly: cells. It is filed as cell-based. Conditions: Homo sapiens, NCI-H1975, 72 h. On the procedure:
as §3

Data set [15] in a line: Safety testing via oral administration, 6 weeks. The class given is in vivo. Conditions: intragastric, 6 weeks continuously, male and female SD rats. The method, then:
The compound solution was intragastrically administrated to 6-week-old male and female SD rats (I-01: 500 mg/kg/day; I-03: 500 mg/kg/day; I-04: 500 mg/kg/day, I-06: 500 mg/kg/day, I-11: 300 mg/kg/day) for 6 weeks continuously (n=10 per group).

In data set [16] the test system is SK-OV3 (high metastasis type ovarian cancer cell line). Put plainly: Ovarian cancer intraperitoneal metastasis animal model. The class given is in vivo, nudemice (BALB/c-nu/nu). Conditions: Mus musculus, SK-OV-3, ip. On the procedure:
The ovarian cancer intraperitoneal metastasis animal model is one of most classic animal models for studying anti-ovarian cancer metastasis drug. Sixty 5 to 6-week-old female nudemice with similar weight (BALB/c-nu/nu) were chosen. SK-OV3 (high metastasis type ovarian cancer cell line) stably expressing green fluorescence protein was screened, and prepared into a cell suspension of 2×10^6 cells/100 μl with serum-free PRMI1640 medium. […] Three weeks later, the cancer was detected with a small animal in vivo imaging apparatus (Xenogen, School of Medicine, Shanghai Jiaotong University) and photos thereof were taken. […] In the table, T represents the drug-treated group, and C represents the blank control group. T/C is (V/V0 of compound-treated group)/(V/V0 of blank control group) in which V represents the cancer volume of mouse on the day the detection was performed, and V0 represents the cancer volume of mouse on the day the administration begun.

Data set [17] deals with Jeko-1. Put plainly: Inhibitory activity for high metastasis type lymphoma cell line (MTT or CCK-8). The class given is cell-based. Conditions: Homo sapiens; Jeko-1, 72 hours; read-out: IC50. On the procedure:
(§4) Jeko-1, Raji and U2932 are three typical high metastasis type lymphoma cell lines. The lymphoma cell line was inoculated on 96-well cell culture plate in an amount of 6000 cells per well and cultured at 37° C. for 24 hours, and then treated solely with the compound added therein and cultured. Seventy-two hours later, MTT or CCK-8 method was used to detect the inhibitory activity of the compound for the two high metastasis type lymphoma cell lines.

Data set [18] relates to U2932. The data set is described as above. The class given is cell-based. Conditions: Homo sapiens; U2932, 72 hours; read-out: IC50. The method, then: as §4
In data set [19] the test system is Raji. The description is as above. The class given is cell-based. Conditions: Homo sapiens, 72 hours, read-out: IC50. On the procedure:
as §4

In data set [20] the test system is HCT116. Briefly: Inhibitory activity for high metastasis type colon cancer cell line (MTT or CCK-8). The class given is cell-based. Conditions: Homo sapiens, HCT-116; HCT116, 72 hours; read-out: IC50. The method, then: (§5) SW620 and HCT116 are two typical high metastasis type colon cancer cell lines. The colon cancer cell line was inoculated on 96-well cell culture plate in an amount of 6000 cells per well and cultured at 37° C. for 24 hours, and then treated solely with the compound added therein and cultured. Seventy-two hours later, MTT or CCK-8 method was used to detect the inhibitory activity of the compound for the two high metastasis type colon cancer cell lines.

Data set [21] concerns SW620. Described as above. The class given is cell-based. Conditions: Homo sapiens, SW-620; SW620, 72 hours; read-out: IC50. The method, then: as §5
The mark [22] stands for this setting: 10 μg/ml, treated for 24 hours, control = 100.

T1 sequence (O14980 whole entry, species assumed): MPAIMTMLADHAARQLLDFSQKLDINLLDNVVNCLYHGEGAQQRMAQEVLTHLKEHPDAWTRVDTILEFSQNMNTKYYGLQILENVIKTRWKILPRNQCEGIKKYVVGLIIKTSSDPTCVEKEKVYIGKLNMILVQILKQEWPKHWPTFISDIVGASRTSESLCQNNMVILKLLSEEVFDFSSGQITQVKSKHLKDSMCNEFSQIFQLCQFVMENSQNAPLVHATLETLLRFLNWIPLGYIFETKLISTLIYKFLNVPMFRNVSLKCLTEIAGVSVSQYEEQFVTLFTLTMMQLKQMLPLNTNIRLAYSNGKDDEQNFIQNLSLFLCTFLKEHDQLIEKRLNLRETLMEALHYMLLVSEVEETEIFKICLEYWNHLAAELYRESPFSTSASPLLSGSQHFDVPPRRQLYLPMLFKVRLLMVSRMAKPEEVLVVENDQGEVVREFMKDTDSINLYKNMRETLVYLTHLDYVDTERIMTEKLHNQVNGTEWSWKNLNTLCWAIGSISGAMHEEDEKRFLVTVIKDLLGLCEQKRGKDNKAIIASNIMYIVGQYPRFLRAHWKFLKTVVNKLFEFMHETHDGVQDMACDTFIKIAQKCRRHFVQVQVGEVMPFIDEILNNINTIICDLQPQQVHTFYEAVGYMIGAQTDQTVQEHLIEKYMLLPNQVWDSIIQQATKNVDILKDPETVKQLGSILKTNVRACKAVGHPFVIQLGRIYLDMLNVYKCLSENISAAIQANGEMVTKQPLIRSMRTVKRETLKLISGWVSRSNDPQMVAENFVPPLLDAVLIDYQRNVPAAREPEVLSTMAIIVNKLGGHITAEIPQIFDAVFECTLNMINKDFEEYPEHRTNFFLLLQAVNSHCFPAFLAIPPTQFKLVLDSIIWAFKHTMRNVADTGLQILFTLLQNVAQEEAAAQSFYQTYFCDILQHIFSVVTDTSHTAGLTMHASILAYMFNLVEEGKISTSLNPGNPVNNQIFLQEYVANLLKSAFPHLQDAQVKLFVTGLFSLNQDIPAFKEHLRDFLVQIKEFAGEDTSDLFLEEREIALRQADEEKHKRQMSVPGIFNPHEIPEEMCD

Take `[O-][S+](/C=C/CCN=C=S)c1ccccc1` (stereo not drawn) [Compound I-01]: the IC50 came to 2700 nM in data set [1] (KYSE-70, 72 h); 3300 nM in [2] (PANC-1, 72 h); 2100 nM in [5] (72 h); 1000 nM in data set [8] (786-0, 72 h); 3200 nM in data set [10] (SAOS-2, 72 h); 1.9 µM in data set [11] (HO-8910, 72 h). Besides, the IC50 was 2.5 µM in data set [12] (A2780, 72 h); 2700 nM in data set [13]; 3.1 µM in data set [14]. The “Serum IL-6 level, Animal-1” value in data set [3] was 1.5 ng/mL. Moreover, the “Serum IL-6 level, Animal-2” value in [3] worked out at 1.3 ng/mL. Besides, the “Serum IL-6 level, Animal-3” value in data set [3] came to 1.2 ng/mL. Also, the “Activity (μM): inhibitory activity for XPO1 protein (full inhibitory concentration)” value (shortened to “Activity (μM): inhibitory activity”) in data set [4] fell in the range of 1 to 5 µM. Moreover, in data set [4] (laser confocal micrograph), the “NES-GFP cell localization (FIG. 1)” value is recorded as “most of NES-GFP protein emitting green fluorescence is congregated in nucleus”. Moreover, the “Serum TNF-α level, Animal-1” value in data set [6] came out at 1.5 ng/mL. The “Serum TNF-α level, Animal-2” value in data set [6] is 1.2 ng/mL. Moreover, the “Serum TNF-α level, Animal-3” value in data set [6] was 1.2 ng/mL. The activity at 10 µg/mL in data set [7] (24 h) lay in the range of 35 to 40%. The compound also showed a Macroscopic pathological score in [9] of 2.5 ± 0.1.
With `[O-][S+](/C=C/CCN=C=S)c1ccc(Cl)c(C(F)(F)F)c1` (stereo not drawn) [Compound I-03], the IC50 in data set [1] (KYSE-70, 72 hours, read-out: IC50) was determined as 1800 nM; in data set [2] (Panc-1, 72 hours, read-out: IC50) it was 1600 nM; in [5] (CaSki, 72 hours, read-out: IC50), 1500 nM; in [8] (786-0, 786-O, 72 hours, read-out: IC50) it was 1300 nM; in [10] (Saos-2, 72 hours, read-out: IC50) it was 2600 nM. The “Serum IL-6 level, Animal-1” value in data set [3] was 0.9 ng/mL. The “Serum IL-6 level, Animal-2” value in data set [3] was determined as 0.8 ng/mL. Also, the “Serum IL-6 level, Animal-3” value in data set [3] was found to be 0.7 ng/mL. In data set [4], the “Activity (μM): inhibitory activity” value was in the range of 0.5 to 1 µM. Moreover, the “Serum TNF-α level, Animal-1” value in data set [6] turned out to be 1.3 ng/mL. Besides, the “Serum TNF-α level, Animal-2” value in data set [6] is 1.1 ng/mL. The “Serum TNF-α level, Animal-3” value in data set [6] was 0.7 ng/mL. The activity at 10 µg/mL in data set [7] (setting [22]) lay within 25 to 30%.
`[O-][S+](/C=C/CCN=C=S)c1ccc2ccccc2c1` (stereo not drawn) [Compound I-11]: in data set [4], the “Activity (μM): inhibitory activity” value lay within 1 to 5 µM. Besides, the activity at 10 µg/mL in data set [7] (setting [22]) lay within 30 to 35%. For the same compound, the nontoxic dose result in data set [15] is listed as “at least 300 mg/kg/day”.
Turning to `S=C=NCCc1ccccc1` [PEITC, phenylethylisothiocyanate, reference compound], in data set [16] (504 h, 80 mg/kg intraperitoneal injection once a day for 3 weeks, read-out: T/C (%)), the response vs control in vivo at 80 mg/kg came to 71%. Besides, in data set [16] (720 h, 80 mg/kg, six mice per group, read-out: Mortality (within 30 days) (converted)), the mortality at 80 mg/kg was 0%. Also, the “Serum IL-6 level, Animal-1” value in data set [3] turned out to be 2.2 ng/mL. Moreover, the “Serum IL-6 level, Animal-2” value in data set [3] came out at 2.1 ng/mL. Moreover, the “Serum IL-6 level, Animal-3” value in [3] stood at 2.1 ng/mL. Further, the “Activity (μM): inhibitory activity” value in data set [4] stood at 30 µM. The IC50 in data set [17] was determined as 8.7 µM; in data set [18], 11.7 µM; in data set [19], 9.3 µM; in data set [20], 8.4 µM; in data set [21] it was 10.2 µM; in data set [11] (HO-8910, 72 hours, read-out: IC50) it was 15.5 µM. Also, in [12] (A2780, 72 hours, read-out: IC50), the IC50 was 17.6 µM. For the same compound, the “Serum TNF-α level, Animal-1” value in [6] was 2.0 ng/mL. The “Serum TNF-α level, Animal-2” value in [6] stood at 1.9 ng/mL. Moreover, in [6], the “Serum TNF-α level, Animal-3” value worked out at 2.0 ng/mL. Further, the activity at 10 µg/mL in data set [7] (setting [22]) was found to be 85%. The compound also showed a Macroscopic pathological score in data set [9] of 3.5 ± 0.3. For the same compound, in [9] (80 mg/kg), the “colon tissue bleeding and ulceration phenomena (in words)” value was “small relief extent”.

As usually defined, the IC50 is the concentration needed to halve the response being measured. Broadly, the mortality is the share of the test organisms that died.
